Values of other authors in US20020102309A1, “CONTROLLED RELEASE FORMULATION FOR ADMINISTRATION OF AN ANTI-INFLAMMATORY NAPHTHALENE DERIVATIVE” (priority 1999, published 2002).

Tested on: patients with osteoarthritis or rheumatoid arthritis

COc1ccc2cc(CCC(C)=O)ccc2c1 [nabumetone, 4-(6′-methoxy-2′-naphthyl)butan-2-20 one]
duodenal ulcer, gastric ulcer, and gastrointestinal bleeding, patients taking the drug (literature (Pisko et al. 1987 and others)): less than 1 % of patients
ulcers occurred, treated patients (patients with osteoarthritis or rheumatoid arthritis, Dahl 1993): 0.03 % of patients
